Measurements taken from PubChem BioAssay AID1963836 (Molecular Pharmacology Branch, DTP, NCI, 2024).

Tested on: 857933-349-R-J2-PDC complex spheroid viability
Experiment: Anticancer human tumor 857933-349-R-J2-PDC patient-derived colon adenocarcinoma cell line growth inhibition [POLQ]
Settings: for IC50: curve of first compound; for viability, T/C: stronger effect = lower value
How it was run: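 Growth inhibition in 3D: complex spheroids (tumor PDC, HUVEC, MSC) treated with POLQ inhibitor combinations; where Cmax unknown, highest tested concentration 10 microM, except SN-38 at 1 microM.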

[1] = second compound 0.0316 µM, first compound 0.0316 µM
[2] = second compound 0.0316 µM, first compound 0.1 µM
[3] = second compound 0.0316 µM, first compound 0.316 µM
[4] = second compound 0.0316 µM, first compound 1 µM
[5] = second compound 0.0316 µM, first compound 3.16 µM
[6] = second compound 0.0316 µM, first compound 10 µM
[7] = second compound 0.1 µM, first compound 0.0316 µM
[8] = second compound 0.1 µM, first compound 0.1 µM
[9] = second compound 0.1 µM, first compound 0.316 µM
[10] = second compound 0.1 µM, first compound 1 µM
[11] = second compound 0.1 µM, first compound 3.16 µM
[12] = second compound 0.1 µM, first compound 10 µM
[13] = second compound 0.316 µM, first compound 0.0316 µM
[14] = second compound 0.316 µM, first compound 0.1 µM
[15] = second compound 0.316 µM, first compound 0.316 µM
[16] = second compound 0.316 µM, first compound 1 µM
[17] = second compound 0.316 µM, first compound 3.16 µM
[18] = second compound 0.316 µM, first compound 10 µM
[19] = second compound 1 µM, first compound 0.0316 µM
[20] = second compound 1 µM, first compound 0.1 µM
[21] = second compound 1 µM, first compound 0.316 µM
[22] = second compound 1 µM, first compound 1 µM
[23] = second compound 1 µM, first compound 3.16 µM
[24] = second compound 1 µM, first compound 10 µM
[25] = second compound 3.16 µM, first compound 0.0316 µM
[26] = second compound 3.16 µM, first compound 0.1 µM
[27] = second compound 3.16 µM, first compound 0.316 µM
[28] = second compound 3.16 µM, first compound 1 µM
[29] = second compound 3.16 µM, first compound 3.16 µM
[30] = second compound 3.16 µM, first compound 10 µM
[31] = second compound 10 µM, first compound 0.0316 µM
[32] = second compound 10 µM, first compound 0.1 µM
[33] = second compound 10 µM, first compound 0.316 µM
[34] = second compound 10 µM, first compound 1 µM
[35] = second compound 10 µM, first compound 3.16 µM
[36] = second compound 10 µM, first compound 10 µM
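Also: spheroids exposed to compounds for seven days before readout.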

## O=c1[nH]cc(F)c(=O)[nH]1 + Cc1cccc(N(C)C(=O)C2C(O)CCN2c2nc(C)cc(C(F)(F)F)c2C#N)c1
Second compound 0.0316 µM
  IC50: 2.47 µM
Second compound 0.1 µM
  IC50: 3.06 µM
Second compound 0.316 µM
  IC50: 3.1 µM
Second compound 1 µM
  IC50: 3.34 µM
Second compound 3.16 µM
  IC50: 2.93 µM
Second compound 10 µM
  IC50: 2.1 µM
[1]
  viability, T/C: 90.7%
[2]
  viability, T/C: 85.8%
[3]
  viability, T/C: 95.5%
[4]
  viability, T/C: 77.8%
[5]
  viability, T/C: 42.6%
[6]
  viability, T/C: 29.5%
[7]
  viability, T/C: 123%
[8]
  viability, T/C: 109%
[9]
  viability, T/C: 106%
[10]
  viability, T/C: 74.9%
[11]
  viability, T/C: 50%
[12]
  viability, T/C: 30%
[13]
  viability, T/C: 102%
[14]
  viability, T/C: 105%
[15]
  viability, T/C: 80.3%
[16]
  viability, T/C: 82%
[17]
  viability, T/C: 43.9%
[18]
  viability, T/C: 34.8%
[19]
  viability, T/C: 94.3%
[20]
  viability, T/C: 95.3%
[21]
  viability, T/C: 77.4%
[22]
  viability, T/C: 85.8%
[23]
  viability, T/C: 50.7%
[24]
  viability, T/C: 30.6%
[25]
  viability, T/C: 93.8%
[26]
  viability, T/C: 92.6%
[27]
  viability, T/C: 85.8%
[28]
  viability, T/C: 69.7%
[29]
  viability, T/C: 49.1%
[30]
  viability, T/C: 27.6%
[31]
  viability, T/C: 90.8%
[32]
  viability, T/C: 122%
[33]
  viability, T/C: 99.2%
[34]
  viability, T/C: 68.9%
[35]
  viability, T/C: 41.9%
[36]
  viability, T/C: 29.3%

## CC(=O)O[C@H]1C(=O)[C@@]2(C)[C@H]([C@H](OC(=O)c3ccccc3)[C@]3(O)C[C@H](OC(=O)[C@H](O)[C@@H](NC(=O)c4ccccc4)c4ccccc4)C(C)=C1C3(C)C)[C@]1(OC(C)=O)CO[C@@H]1C[C@@H]2O + Nc1ccc(C#CCN(C(=O)Cc2ncc(C(F)(F)F)cc2C(F)(F)F)c2ccc(F)cc2)nn1
Second compound 0.0316 µM
  IC50: < 0.00949 µM
Second compound 0.1 µM
  IC50: < 0.00949 µM
Second compound 0.316 µM
  IC50: 0.0128 µM
Second compound 1 µM
  IC50: 0.0112 µM
Second compound 3.16 µM
  IC50: 0.00973 µM
Second compound 10 µM
  IC50: 0.0113 µM
Second compound 0.0316 µM, first compound 0.00949 µM
  viability, T/C: 45%
Second compound 0.0316 µM, first compound 0.03 µM
  viability, T/C: 20.3%
Second compound 0.0316 µM, first compound 0.0949 µM
  viability, T/C: 13.2%
Second compound 0.0316 µM, first compound 0.3 µM
  viability, T/C: 10.6%
Second compound 0.0316 µM, first compound 0.949 µM
  viability, T/C: 12.3%
Second compound 0.0316 µM, first compound 3 µM
  viability, T/C: 15.7%
Second compound 0.1 µM, first compound 0.00949 µM
  viability, T/C: 45.8%
Second compound 0.1 µM, first compound 0.03 µM
  viability, T/C: 22.9%
Second compound 0.1 µM, first compound 0.0949 µM
  viability, T/C: 10.2%
Second compound 0.1 µM, first compound 0.3 µM
  viability, T/C: 15.6%
Second compound 0.1 µM, first compound 0.949 µM
  viability, T/C: 11.8%
Second compound 0.1 µM, first compound 3 µM
  viability, T/C: 15.2%
Second compound 0.316 µM, first compound 0.00949 µM
  viability, T/C: 58.1%
Second compound 0.316 µM, first compound 0.03 µM
  viability, T/C: 27.4%
Second compound 0.316 µM, first compound 0.0949 µM
  viability, T/C: 12.8%
Second compound 0.316 µM, first compound 0.3 µM
  viability, T/C: 14.9%
Second compound 0.316 µM, first compound 0.949 µM
  viability, T/C: 15.1%
Second compound 0.316 µM, first compound 3 µM
  viability, T/C: 17.1%
Second compound 1 µM, first compound 0.00949 µM
  viability, T/C: 54.5%
Second compound 1 µM, first compound 0.03 µM
  viability, T/C: 24.8%
Second compound 1 µM, first compound 0.0949 µM
  viability, T/C: 14.6%
Second compound 1 µM, first compound 0.3 µM
  viability, T/C: 14%
Second compound 1 µM, first compound 0.949 µM
  viability, T/C: 17.4%
Second compound 1 µM, first compound 3 µM
  viability, T/C: 14.8%
Second compound 3.16 µM, first compound 0.00949 µM
  viability, T/C: 50.6%
Second compound 3.16 µM, first compound 0.03 µM
  viability, T/C: 20.1%
Second compound 3.16 µM, first compound 0.0949 µM
  viability, T/C: 16.1%
Second compound 3.16 µM, first compound 0.3 µM
  viability, T/C: 11.7%
Second compound 3.16 µM, first compound 0.949 µM
  viability, T/C: 17.3%
Second compound 3.16 µM, first compound 3 µM
  viability, T/C: 18.6%
Second compound 10 µM, first compound 0.00949 µM
  viability, T/C: 54.2%
Second compound 10 µM, first compound 0.03 µM
  viability, T/C: 26.5%
Second compound 10 µM, first compound 0.0949 µM
  viability, T/C: 16.8%
Second compound 10 µM, first compound 0.3 µM
  viability, T/C: 14.9%
Second compound 10 µM, first compound 0.949 µM
  viability, T/C: 14.5%
Second compound 10 µM, first compound 3 µM
  viability, T/C: 20.3%

## CC1COCCN1c1cc(C2(S(C)(=N)=O)CC2)nc(-c2ccnc3[nH]ccc23)n1 (stereo unspecified) + Cc1cccc(N(C)C(=O)C2C(O)CCN2c2nc(C)cc(C(F)(F)F)c2C#N)c1
Second compound 0.0316 µM
  IC50: 3.21 µM
Second compound 0.1 µM
  IC50: 3.88 µM
Second compound 0.316 µM
  IC50: 2.71 µM
Second compound 1 µM
  IC50: 4.38 µM
Second compound 3.16 µM
  IC50: 5.54 µM
Second compound 10 µM
  IC50: 4.77 µM
[1]
  viability, T/C: 97.9%
[2]
  viability, T/C: 105%
[3]
  viability, T/C: 95%
[4]
  viability, T/C: 78.2%
[5]
  viability, T/C: 50.4%
[6]
  viability, T/C: 36.4%
[7]
  viability, T/C: 88.6%
[8]
  viability, T/C: 112%
[9]
  viability, T/C: 87.4%
[10]
  viability, T/C: 76.3%
[11]
  viability, T/C: 55.2%
[12]
  viability, T/C: 32.5%
[13]
  viability, T/C: 75%
[14]
  viability, T/C: 81.5%
[15]
  viability, T/C: 101%
[16]
  viability, T/C: 69.8%
[17]
  viability, T/C: 48.7%
[18]
  viability, T/C: 35.4%
[19]
  viability, T/C: 92.9%
[20]
  viability, T/C: 91.7%
[21]
  viability, T/C: 102%
[22]
  viability, T/C: 74.8%
[23]
  viability, T/C: 57.4%
[24]
  viability, T/C: 36.6%
[25]
  viability, T/C: 95.5%
[26]
  viability, T/C: 98.2%
[27]
  viability, T/C: 84.4%
[28]
  viability, T/C: 78.8%
[29]
  viability, T/C: 52.3%
[30]
  viability, T/C: 45.8%
[31]
  viability, T/C: 80.1%
[32]
  viability, T/C: 84.7%
[33]
  viability, T/C: 88.6%
[34]
  viability, T/C: 72.5%
[35]
  viability, T/C: 57.4%
[36]
  viability, T/C: 38.2%
